Data published in article PMC5768801, “The PII signaling protein from red algae represents an evolutionary link between cyanobacterial and Chloroplastida PII proteins” (Scientific Reports, 2018).

Biological target: T1, ScNAGK (Synechocystis sp., UniProt P73326)
T1 sequence (P73326 1-297): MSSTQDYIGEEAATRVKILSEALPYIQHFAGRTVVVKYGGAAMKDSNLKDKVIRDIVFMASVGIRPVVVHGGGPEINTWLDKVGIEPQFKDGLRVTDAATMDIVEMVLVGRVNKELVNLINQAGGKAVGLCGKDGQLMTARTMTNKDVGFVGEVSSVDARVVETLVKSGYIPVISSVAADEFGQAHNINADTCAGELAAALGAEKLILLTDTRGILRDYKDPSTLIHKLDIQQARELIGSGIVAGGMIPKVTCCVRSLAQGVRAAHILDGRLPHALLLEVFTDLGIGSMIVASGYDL
Assay: AGPR-coupled NAGK activity assay without PpPII
Format: biochemical, Synechocystis sp. PCC 6803
Details: absence of PpPII, comparing 0 and 4 mM ADP, at 1 mM or 2 mM ATP
Text: All available structural information of PII proteins revelas that ATP and ADP bind to the same binding sites[2],[7]. When ATP and ADP are simultaneously present, they will compete for binding to the PII trimer. Since, the ATP/ADP binding site of the red algal PpPII protein is highly conserved (Fig. 1), competition between the nucleotides will occur. Since the activation of NAGK by PII is dependent on the ATP-ligated state of PII[9] and ADP inhibits PII-NAGK complex formation[9],[31], competition between ATP/ADP for PII binding can be monitored by measuring NAGK activity[31] under different ATP/ADP ratios. For this assay, we used an AGPR-coupled activity assay for NAGK[33], which allows measurement of NAGK activity in presence of ADP. Different concentrations of ADP were added to reaction mixtures containing either 1 mM or 2 mM ATP, in the absence or presence of PpPII (Fig. 8). Addition of ADP led to a monotonical and shallow decrease in the activity of ScNAGK at both fixed ATP concentration. […]
The change in NADPH absorbance was recorded at 340 nm as described previously[31],[33], in a reaction buffer composed of 50 mM potassium phosphate (pH 7.0), 50 mM KCl, 20 mM MgCl2, 0.2 mM NADPH and 0.5 mM DTT. […] The reaction was started by the addition of ScNAGK and was recorded for 10 min with a spectrophotometer (SPECORD 210 PLUS, Analytik Jena). Kinetic constants were calculated as descried above.

Nc1ncnc2c1ncn2[C@@H]1O[C@H](COP(=O)(O)OP(=O)(O)O)[C@@H](O)[C@H]1O [ADP]
reduction of ScNAGK activity: about 1.8 fold
